Patent US20130252987A1, “METHOD OF REGULATING PLASMA LIPOPROTEINS” (MCMASTER UNIVERSITY, priority 2010, published 2013)

Legend:
HepG2 cells [1] = test: immunoblotting for LDL receptor and PCSK9 in HepG2 cells
Procedure: Cells were propagated in 10% FBS-containing DMEM supplemented with 1% penicillin-streptomycin and 0.06% L-glutamine (584 mg/L) at 37° C., 5% CO2. During treatment experiments with human recombinant resistin (Calbiochem, UK) and/or lovastatin (Sigma, Mo.), the media was changed to 1% FBS-containing DMEM. All of the experiments to follow were performed at least three times and representative results are shown. Cells were stimulated with resistin at various doses (0, 10, 25, 50, and 100 ng/mL) for 24 hours or with a single dose at 50 ng/mL resistin. In other experiments, the microsomal triglyceride transfer protein (MTP) inhibitor, CP-346086, was administered at 1.3 nM, either alone or together with resistin (50 ng/mL) for 24 hours. Lovastatin was administered at 1 to 5 μM for 24 hours to stimulate the cells, either alone or in combination with resistin (50 ng/mL). Unless otherwise indicated, all experiments were performed in triplicate in three independent experiments.
Cell lysates collected with RIPA buffer (50 mM Tris, 150 mM sodium chloride, 1% NP-40, 12 mM sodium deoxycholate, 3.5 mM SDS, pH 7.4) and protease inhibitor cocktail (Roche Diagnostics, QC) were analyzed for human LDL receptor and PCSK9 as previously described (Rashid et al. Proc Nall Acad Sci U S A 2005; 102:5374-9). Equivalent amounts of total protein, determined by Bradford reaction was subjected to sodium dodecyl sulfate polyacrylamide gel electrophoresis (SDS-PAGE), transferred onto nitrocellulose membranes (BioRad, CA) and immunoblotted using antibodies against the LDL receptor (Fitzgerald International, CA) and PCSK9 (Cayman Chemicals, MI). Horseradish peroxidase-conjugated antibodies (BioRad, CA) were used as secondary antibodies. Immunoreactive bands were visualized with a chemiluminescence kit (PerkinElmer Life Sciences, MA). The blots were exposed to KODAK Biomax films, and the signal was quantified by densitometry using Quantity One version 4.6.7. software (Bio Rad, CA).
All of the experiments were performed at least three times and representative results are shown. Dose-response experiments were performed in HepG2 cells with 0, 10, 25, 50, 75 and 100 ng/mL of human resistin for 24 hours. Western blots were then performed on cell lysates to detect the cellular expression of LDL receptor protein.

HepG2 cells [2] = test: real-time quantitative PCR of mRNA expression; format: cell-based, human; settings: CP-346086 1.3 nM, 24 hours
Procedure: Total RNA was isolated from cell lysates (RNeasy Mini Kit, Qiagen, Germantown, Md.) and used as a template for cDNA synthesis (QuantiTech Reverse Transcription Kit, Qiagen, Germantown, Md.). Quantitative real-time PCR was performed using an Applied Biosystems 7300 Real Time PCR system (Carlsbad, Calif.) according to the manufacturer's instructions and with the SYBR green master kit (Qiagen, Germantown, Md.). Primers for the real-time PCR internal control gene cyclophilin A (sense, 5′-[…]-3′ (SEQ ID NO:3); antisense, 5′-[…]-3′ (SEQ ID NO:4)) were synthesized (IDT, Coralville, Iowa). Primers for succinate degydrogenase (SDH) (another real-time PCR internal control gene), apoB, microsomal triglyceride transfer protein (MTP), Srebp1, Srebp2, acetyl-coA carboxylase (ACC), HMG-coA reductase, HMG-coA synthase, squalene synthase (SS), the LDL receptor, PCSK9, fatty acid synthase (FAS), […] (SCD), DGAT1 and DGAT2 were purchased (proprietary sequences not available) (Qiagen, Germantown, Md.). The values reported for each mRNA were corrected to the cyclophilin A and SDH mRNA values.
Total RNA was isolated from cell lysates (RNeasy Mini Kit, Qiagen, MD) and used as a template for cDNA synthesis (QuantiTech Reverse Transcription Kit, Qiagen, MD). Quantitative real-time PCR was performed using an Applied Biosystems 7300 Real-Time PCR system (Carlsbad, Calif.) according to the manufacturer's instructions and with the SYBR green kit (Qiagen, MD). Primers for the real-time PCR internal control gene cyclophilin A, as identified in Example 1, were synthesized (IDT, IA). Primers for succinate dehydrogenase (SDH) (another real-time PCR internal control gene), SREBP2, HMG-CoA reductase, the LDL receptor and PCSK9 were purchased (proprietary sequences not available) (Qiagen, MD). The values reported for each mRNA were corrected to the cyclophilin A and SDH mRNA values.

HepG2 cells [3] = test: cell viability, tryphan blue staining; format: cell-based, human; settings: 1.3 nM
Procedure: Cell viability was determined with 0.4% tryphan blue (Sigma-Aldrich, ON) staining and calculated using the following formula: % Cell Viability=(number of unstained (living) cells/Total number of cells)×100.
The next question was whether this amount of human resistin is toxic to hepatocytes. Tryphan blue staining of HepG2 cells upon 50 ng/mL of resistin treatment to determine cell viability was performed.

HepG2 cells [4] = test: apoB and apolipoprotein expression and secretion, immunoprecipitation and Western blot; format: cell-based, human; settings: lactacystin 10 μM, 24 hours
Procedure: During experiments in which HepG2 cells were treated with human recombinant resistin (Calbiochem, UK) the media was changed to 1% FBS-containing DMEM. […] In separate experiments, cells were treated with the fatty acid, oleate (100 μM) (Sigma, ON) for 24 hours, with or without human resistin (50 ng/mL) for 24 hours. In other experiments, cells were treated with the 10 μM lactacystin (Cayman Chemical, Ann Arbor, Mich.) for 24 hours to assess intracellular proteosome-dependent apoB protein degradation.
Horseradish peroxidase-conjugated antibodies (BioRad, Hercules, Calif.) were used as secondary antibodies.
All of the experiments to follow were performed three times and representative results are shown. […] Immunoprecipitation on cell lysates and media, followed by Western blots to detect the cellular expression and secretion of human apoB protein were then performed. The constitutively expressed cellular proteins, beta-actin and albumin were used as internal immunoblot controls to confirm equal protein loading in the apoB immunoblots of cell lysates and media, respectively. […] Treatment with 25 ng/mL resistin further stimulated apoB secretion by approximately 250% compared with untreated cells (FIG. 1A).

[5] = system: RETN (human resistin gene); test: resistin siRNA transfection of HepG2 cells; format: cell-based; settings: 10 nM siRNA, 24 or 48 hours
Procedure: HepG2 cells were seeded 200,000 cells per well in a 6-well plate in 2300 uL of 10% FBS DMEM with antibiotics. Awaiting transfection, the cells were placed at 37° C. and 5% CO2. Next, 300 ng of siRNA against RETN (human resistin gene), with the sequence 5′[…] (SEQ ID NO: 5), purchased from Qiagen, MD, was diluted in 100 uL of serum free DMEM which yielded a final concentration of 10 nM once added to cells. 12 uL of HiPerfect Transfection reagent (Qiagen) was also added to the siRNA and mixed by pipetting. The siRNA mixture was allowed to form transfection complexes by incubation at room temperature for 7 minutes. The complexes were then added drop wise to the cells and incubated at 37° C. and 5% CO2 for 24 or 48 hours before harvest. Transfection efficiency was quantitatively measured by the fluorescently labeled scrambled negative control siRNA (Qiagen). siRNA knockdown efficiency was measured by positive control siGAPDH (Qigen) at the transcript and protein levels.

[6] = CP-346086 1.3 nM with resistin 50 ng/mL, 24 hours

In the case of `O=C(Nc1ccc2c(c1)CCN(Cc1ncn[nH]1)C2)c1ccccc1-c1ccc(C(F)(F)F)cc1` [CP-346086, reference compound], the “effect on LDL receptor protein levels observed with resistin treatment” value (HepG2 cells [1]; [6]) is reported as “reversed the decline”, the “effect on PCSK9 protein levels induced by resistin” value (HepG2 cells [1]; [6]) is reported as “reversed the increase” and the “HMG-coA reductase mRNA expression” value (HepG2 cells [2]) is reported as “reduction”. For the same compound, the “SREBP2 mRNA expression” value (HepG2 cells [2]) was “reduction” and the cell viability (HepG2 cells [3]) was “did not reduce cell viability”.
In the case of `CC(=O)N[C@@H](CSC(=O)[C@]1([C@@H](O)C(C)C)NC(=O)[C@H](C)[C@@H]1O)C(=O)O` [lactacystin, reference compound], the “cellular expression and secretion of apoB” value (HepG2 cells [4]) is reported as “increase”.
For `CC[C@H](C)C(=O)O[C@H]1C[C@@H](C)C=C2C=C[C@H](C)[C@H](CC[C@@H]3C[C@@H](O)CC(=O)O3)[C@H]21` [lovastatin, reference compound], the “hepatocyte LDL receptor expression” value (HepG2 cells [1]; lovastatin 5 μM) was “increase”.
With “Resistin siRNA: siRNA against RETN (human resistin gene), sequence 5′CCCTAATATTTAGGGCAATAA (SEQ ID NO: 5), Qiagen (listed as DNA, chemistry not given here)” the “cellular LDL receptor levels” value [5] was “very effective in increasing”, the “cellular PCSK9 levels” value [5] was “reduction” and the “cellular protein levels of resistin” value [5] was “very effective in reducing”. For the same compound, the “expression of apoB” value [5] was “reducing the expression”.
